The source of these data is PubChem BioAssay (NCI).

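Briefly, cells in 96-well plates were exposed to five compound concentrations for 48 h, and endpoints were estimated by linear interpolation. GI50 = concentration required for 50% inhibition of growth. TGI marks complete inhibition of growth.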

Some test systems named below: MALME-3M melanoma; XF 498 CNS; M19-MEL melanoma; DMS 114 small cell lung; MDA-MB-435; T-47D breast; BT-549 breast; DU-145 prostate; MDA-N; MDA-MB-231 breast; SNB-78 CNS; 786-0 renal.
What all share (experiment): growth of human tumour cells (NCI), 48 h

Regarding `O=C1C(Cl)N(c2ccccc2Cl)C1c1c[nH]c2ccccc12` (configuration not stated), the TGI in the assay with MALME-3M melanoma, with XF 498 CNS, with M19-MEL melanoma and in the assay with DMS 114 small cell lung was over 100 µM each time.
With `Oc1ccc(C(=C(Br)c2ccccc2)c2ccc(O)cc2)cc1`, the TGI with MALME-3M melanoma came out at 18 µM; with MDA-MB-435, 3.45 µM; in the assay on T-47D breast it was 46.2 µM; with BT-549 breast it was 15.4 µM; in the assay on DU-145 prostate, 25.7 µM; in the assay on MDA-N, 4.1 µM. In the assay on MDA-MB-231 breast, the TGI came to 24 µM.
With `C=C(C#N)C(=O)OCC(CC)CC.C=C(C#N)C(=O)OCC(CC)CC.CS(C)=O.CS(C)=O.Nc1c(N=Nc2ccc(-c3ccc(N=Nc4cc(S(=O)(=O)[O-])c5ccccc5c4N)cc3)cc2)cc(S(=O)(=O)[O-])c2ccccc12.[Pt+2]`, the GI50 in the assay on MALME-3M melanoma was 21.8 µM; with XF 498 CNS it was 21.1 µM; with SNB-78 CNS, 38.8 µM. Further, the TGI in the assay on MALME-3M melanoma was 50 µM; in the assay on XF 498 CNS it was 40.9 µM; in the assay on SNB-78 CNS, over 95.6 µM.
For `COc1ccc2nc3cc(Cl)ccc3c(NC(C)CCCN(CCCl)CCCl)c2c1` (configuration not stated), the TGI came out at 9.63 µM in the assay with MALME-3M melanoma; 3.87 µM with 786-0 renal; 4.43 µM in the assay on XF 498 CNS; 8.78 µM in the assay with M19-MEL melanoma; 11.4 µM in the assay with DMS 114 small cell lung; 7.38 µM in the assay with SNB-78 CNS.
In the case of `Cc1ccc(S(=O)(=O)N(CC(O)COc2ccccc2)c2c(F)cccc2F)cc1` (configuration not stated), the TGI is 52.4 µM in the assay with MALME-3M melanoma; 30.5 µM with MDA-MB-435; 42.1 µM with 786-0 renal; 20.1 µM in the assay on T-47D breast; over 100 µM with DU-145 prostate; 31.4 µM in the assay with MDA-N. In addition, the TGI in the assay on MDA-MB-231 breast was 43.8 µM.
Take `COC(=O)c1cc2c(cc1Cl)Sc1nnc(Nc3ccccc3)n1S2(=O)=O`: the TGI in the assay with MALME-3M melanoma was 11.6 µM; in the assay on MDA-MB-435, 22.7 µM; with 786-0 renal, 16.4 µM; in the assay on T-47D breast, 3.72 µM; with BT-549 breast, 14.5 µM; in the assay with DU-145 prostate, 3.87 µM. In the assay with MDA-MB-231 breast, the TGI was found to be 17.7 µM.
With `O=C1c2cc(O)c(O)cc2O[C@H](c2ccc(O)c(O)c2)[C@H]1O`, the TGI in the assay with MDA-MB-435, with 786-0 renal, in the assay with T-47D breast, with BT-549 breast, in the assay on DU-145 prostate and with MDA-N was over 100 µM each time. Besides, the TGI in the assay with MDA-MB-231 breast is over 100 µM.
Turning to `O=C1c2cc3c(cc2-c2c1c1ccc(Cl)cc1c(=O)n2C[C@H](O)CO)OCO3`, the GI50 is 0.0691 µM with MDA-MB-435, 0.0315 µM with T-47D breast, 0.0323 µM in the assay with DU-145 prostate and 0.32 µM with MDA-MB-231 breast. Further, the TGI in the assay on MDA-MB-435 was 0.271 µM; with T-47D breast, over 100 µM; in the assay on DU-145 prostate, 1.08 µM; with MDA-MB-231 breast, 1.97 µM.
In the case of `O=C1c2ccccc2C(=O)c2[nH]cnc21`, the TGI with MALME-3M melanoma was 57.3 µM; in the assay with 786-0 renal, over 100 µM; with XF 498 CNS, 99.4 µM; in the assay with M19-MEL melanoma, 40.6 µM; in the assay on DMS 114 small cell lung it was 86.9 µM; in the assay with SNB-78 CNS it was over 100 µM.
Take `Cc1ccc(S(=O)(=O)OC2CC(C(C)(C)C)CCC2c2ccccc2)cc1` (configuration not stated): the TGI in the assay on MDA-MB-435, with 786-0 renal, with T-47D breast, in the assay with BT-549 breast, in the assay on DU-145 prostate and in the assay with MDA-N was over 100 µM in each case. Also, the TGI in the assay on MDA-MB-231 breast was over 100 µM.
For `CCOC(=O)c1c2c(n(-c3ccc(C)cc3)c1C)-c1ccccc1C(=O)C2(C(=O)OCC)C(=O)OCC`, the TGI is over 75.5 µM in the assay on MALME-3M melanoma; 93.5 µM in the assay on MDA-MB-435; over 100 µM in the assay with 786-0 renal; 64.5 µM in the assay on T-47D breast; 55.2 µM in the assay on BT-549 breast; over 100 µM in the assay with DU-145 prostate. The compound further yielded a TGI in the assay with MDA-MB-231 breast of over 100 µM.
Regarding `CN1C(=O)CC(=O)N1/C(=C/c1ccccc1)c1ccccc1`, the TGI with MDA-MB-435 was over 100 µM; in the assay with T-47D breast, over 100 µM; with BT-549 breast it was over 100 µM; in the assay with DU-145 prostate, over 100 µM; in the assay with MDA-N it was over 100 µM; in the assay on MDA-MB-231 breast it was 79.4 µM.
Regarding `CCN(CC)CCNc1ccc2ncn3c4ccc(O)cc4c(=O)c1c23`, the TGI is 15.8 µM in the assay with MALME-3M melanoma; 18.4 µM with MDA-MB-435; 14.1 µM in the assay on 786-0 renal; 7.42 µM in the assay with XF 498 CNS; 30.7 µM in the assay with T-47D breast; 17.1 µM in the assay with M19-MEL melanoma. The TGI with BT-549 breast was 24.9 µM; with DU-145 prostate it was 18.4 µM; in the assay with MDA-N, 17.9 µM; in the assay with MDA-MB-231 breast it was 14.1 µM; in the assay on SNB-78 CNS it was 17.6 µM.
In the case of `C=CCNC(=O)C(C)C1CCC2(C)C=CC(=O)C(C)=C2C1O` (configuration not stated), the TGI in the assay with XF 498 CNS is over 100 µM; with M19-MEL melanoma, over 100 µM; with DMS 114 small cell lung, over 100 µM; in the assay with SNB-78 CNS it was over 89.1 µM.
Turning to `CSCCC(C(=O)O)N(C)C` (configuration not stated), the TGI with MALME-3M melanoma, in the assay with MDA-MB-435, in the assay with 786-0 renal, in the assay on T-47D breast, in the assay on BT-549 breast and in the assay on DU-145 prostate was over 100 µM each time. Also, the TGI with MDA-N and in the assay with MDA-MB-231 breast was over 100 µM in each case.
As for `O=C(CSCC(=O)N/N=C/c1cccc(O)c1)N/N=C/c1cccc(O)c1`, the TGI in the assay on MALME-3M melanoma, with MDA-MB-435, with 786-0 renal, in the assay with T-47D breast, with DU-145 prostate and in the assay with MDA-MB-231 breast was over 100 µM each time.
